From US20030175680A1, “Methods of treating and preventing bone loss” (priority 2002, published 2003)
Entries after “also recorded” stand apart in the source; their conditions may differ.

Key:
[1] = test system: ovariectomized (Ovx) rats; assay: Estrogen deficiency Rat OVX osteopenia assay, BMD; format: in vivo
Method: In order to determine the ability of inhibitors of 15-lipoxygenase to stimulate bone formation and bone accretion, [[[5-(5,6-difluoro-1H-indol-2-yl)-2-methoxyphenyl]amino]sulfonyl]-carbamic acid-isobutyl ester, Compound 6, was prepared as described in WO0196298 ) and tested in the standard estrogen deficiency Rat OVX osteopenia assay.
Three month old rats are ovariectomized (Ovx) and administered 1 mg/kg/day Compound 6 or 0.1 ug/kg/day 1,25-dihydroxy vitamin D3 (positive control, abbreviated Vit. D in Table) by oral gavage once a day starting at 2 weeks post-ovariectomy and continuing for 7 weeks. The dose was increased to 2 mg/kg/day and continued until 11 weeks. Control groups, both sham (rats that were not ovariectomized) and Ovx, received vehicle only. The bone mineral density of the spine and right hip was determined by using the High Resolution Software package on a QDR-4500 Bone Densitometer^□ (Hologic, Walthan, Mass.). The animals were scanned by placing them in a supine position such that the right femur was perpendicular to the main body and the tibia was perpendicular to the femur. […]

15-LO = 15-LO (UniProt P12530); format: biochemical
Method: IC50's may be determined by standard methods. One particular method is a colorimetric assay in which the putative inhibitor is pre-incubated with the 15-LO enzyme for about 10 minutes followed by addition of linoleic acid substrate for an additional 10 minutes. The product, 13-HPODE, is quantitated by coupling the reduction of the hydroperoxylated lipid to the oxidation on N-benzoyl-leucomethylene blue in the presence of hemin at pH 5. The absorbance of the oxidized methylene blue is directly proportional to the amount of 13-HPODE formed by the 15-LO, and can be measured in the presence and absence of inhibitor.

[2] = test system: human mesenchymal stem cells (hMSC); assay: Total calcium content of hMSC cultures induced to differentiate into osteoblasts; format: cell-based; details: for culture calcium deposition (total calcium content): hMSC cultured 16 days with 5-LO inhibitors, relative to DMSO or 1,25-Vitamin D3, FIG. 9; for calcium content: hMSC, second experimental set, inhibitors added on Day 1 or Day 11, FIG. 7
Method: (§1) In order to determine the ability of inhibitors of 15-lipoxygenase to stimulate bone formation and bone accretion, the ability of the 15-LO inhibitors to promote measures of differentiation of stem cells into bone forming cells (osteoblasts) was tested in vitro.
(§2) Four to eight independent replicate cultures were prepared at each dose level. At the end of the experiments, the cultured cells were harvested by scraping the wells into the appropriate medium for further analysis of either alkaline phosphatase (Sigma kit#104-LL), or cellular calcium (Sigma kit#587-M). Cultures harvested for alkaline phosphatase assessment were harvested by scraping the cells and resuspending into 250 μL Tris buffered 0.1% Triton X-100, and then assayed either fresh or following freeze-thaw. Separate cultures to be assayed for total calcium content were scraped and resuspended into 250 μL 0.5M HCL. Results of these assays were normalized to total cellular DNA, thereby normalizing for differences in cell proliferation. At the same times that cultures were harvested for alkaline phosphatase and calcium, separate replicate cultures were harvested by scraping the cells and resuspending them in 250 μL Hank's Balanced Salt Solution, and cellular number assessed by DNA (DNeasy Tissue Kit, Qiagen cat#69506).
(§3) Inhibitors were added either on Day 1 or Day 11. […] The normalized activity of alkaline phosphatase and calcium content is plotted in FIGS. 6 and 7, respectively.
(§4) As a control for the specificity of 15-LO inhibition for the induction of osteoblast differentiation of stem cells in vitro, the third set of experiments studied eight replicates of standard lipoxygenase inhibitors recognized as more specific to the 5-LO enzyme, rather than the 15-LO enzyme. Zileuton (1,10, 50 uM, prepared at Roche as) Compound 5, AA-861 (1, 10, 50 uM, Sigma #A371 1) and Rev-5901 (15 uM, Sigma #R5523) were prepared fresh every 2-3 days and tested in the human osteoblast precursor cells.

[3] = test system: human mesenchymal stem cells (hMSC); assay: Alkaline phosphatase activity in hMSC cultures induced to differentiate into osteoblasts; format: cell-based; details: for alkaline phosphatase activity: hMSC cultured 9 days with 5-LO inhibitors, relative to DMSO, FIG. 8; for normalized activity of alkaline phosphatase: hMSC, second experimental set, inhibitors added on Day 1 or Day 11, FIG. 6
Method: as §1, §2
[…] Three different sets of experiments were performed.
The plates were cultured for 14 days. The DNA-normalized activity of alkaline phosphatase is plotted in FIG. 5.
as §3, §4

Lck-IL4 transgenic mice = assay: Lck-IL4 transgenic mouse model of osteoporosis: whole body and femoral bone parameters; format: in vivo; details: Lck-IL4 mice fed Compound 2 150 mg/kg bid in food 84 days vs untreated Lck-IL4 controls
Method: The ability of 15-lipoxygenase inhibitors to promote bone formation in vivo was assessed by measuring the ability of the inhibitors to improve bone parameters in a mouse model of osteoporosis. Constitutive expression of an Interleukin-4 transgene from the Lck gene promoter (Lck-IL4) in C57BL/6 mice results in a severe bone phenotype mimicking osteoporosis.
Mice were permitted access to one-half the daily food intake twice daily at approximately 12 h intervals and diet intake was monitored daily. Water was available ad libitum. The control groups received the same diet without Compound 2. All groups consumed food equally well over the course of the experiment. […]
Bone mineral measurements were determined by dual energy X-ray absorptiometry (DEXA). […]
The cross-sectional geometric parameters of the mid-diaphysis of the femora were determined using a portable x-ray microtomograph (Model 1074, Skyscan, Antwerp, Belgium). Scans were taken at […] intervals, and a slice located at the midpoint of the femur was analyzed for total area (FCSA), cortical area (Ct Ar) and medullary canal area (Ma Ar). In addition, using the pixels contained in the cortical region of the digital image, the radius from the centroid of the cross-section to the outer fiber in the anterior-posterior plane, the areal moment of inertia (Ixx) in the plane of bending and the average cortical thickness (Ct Th) were calculated. […]

[4] = 3 weeks treatment, 1 mg/kg/day oral gavage
[5] = 7 weeks treatment, 1 mg/kg/day oral gavage
[6] = 11 weeks treatment, dose increased to 2 mg/kg/day after 7 weeks, oral gavage
[7] = 7 weeks treatment, 0.1 ug/kg/day oral gavage (positive control)

15-LO, sequence (P12530 whole entry): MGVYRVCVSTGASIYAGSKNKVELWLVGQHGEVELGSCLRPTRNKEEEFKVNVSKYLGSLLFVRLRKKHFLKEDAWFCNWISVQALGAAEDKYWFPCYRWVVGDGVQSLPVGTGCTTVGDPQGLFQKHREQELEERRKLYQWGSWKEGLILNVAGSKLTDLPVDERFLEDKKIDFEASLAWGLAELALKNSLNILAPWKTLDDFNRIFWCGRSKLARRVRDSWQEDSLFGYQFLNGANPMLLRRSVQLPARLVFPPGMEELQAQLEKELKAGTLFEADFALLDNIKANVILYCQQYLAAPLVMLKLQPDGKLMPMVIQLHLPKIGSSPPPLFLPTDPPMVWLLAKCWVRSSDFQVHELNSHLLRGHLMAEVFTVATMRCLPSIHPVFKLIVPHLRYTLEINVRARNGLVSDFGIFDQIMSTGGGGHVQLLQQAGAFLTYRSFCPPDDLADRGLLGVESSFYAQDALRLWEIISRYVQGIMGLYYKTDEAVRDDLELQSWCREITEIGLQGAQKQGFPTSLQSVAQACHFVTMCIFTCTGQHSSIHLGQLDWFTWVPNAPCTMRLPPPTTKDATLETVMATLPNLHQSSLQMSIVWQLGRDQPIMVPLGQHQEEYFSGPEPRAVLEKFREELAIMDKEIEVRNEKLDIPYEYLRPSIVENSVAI

Structure (SMILES): COc1ccc(-c2cc3cc(F)c(F)cc3[nH]2)cc1NS(=O)(=O)NC(=O)OCC(C)C [Compound 6, [[[5-(5,6-difluoro-1H-indol-2-yl)-2-methoxyphenyl]amino]sulfonyl]-carbamic acid-isobutyl ester]
- BMD Lumbar Spine L2-L4 [1, 4]: 0.2347 (0.055) gm mineral/cm^2
- BMD Lumbar Spine L5 [1, 4]: 0.2480 gm mineral/cm^2
- BMD Proximal Femur [1, 4]: 0.2838 (0.103) gm mineral/cm^2
- BMD Lumbar Spine L2-L4 [1, 5]: 0.2474 (0.019) gm mineral/cm^2
- BMD Lumbar Spine L5 [1, 5]: 0.2549 gm mineral/cm^2
- BMD Proximal Femur [1, 5]: 0.2932 (0.033) gm mineral/cm^2
- BMD Lumbar Spine L2-L4 [1, 6]: 0.2507 (0.009) gm mineral/cm^2
- BMD Lumbar Spine L5 [1, 6]: 0.2626 gm mineral/cm^2
- BMD Proximal Femur [1, 6]: 0.2986 (0.039) gm mineral/cm^2
- BMD in the spine ([1]; at >3 weeks, result in words): increased BMD
- BMD in the proximal femur ([1]; at >7 weeks, result in words): increased BMD
- IC50 (15-LO): 0.025 to 0.083 µM

Structure (SMILES): CC(c1cc2ccccc2s1)N(O)C(N)=O (stereo not drawn) [Compound 5, Zilueton]
- culture calcium deposition (total calcium content) ([2]; listed as Zileuton): lack ability to induce; also recorded: lack of a response
- IC50 for 15-LO (15-LO; result in words): negative control
- alkaline phosphatase activity ([3]; listed as Zileuton): lack ability to induce; also recorded: lack of a response

Structure (SMILES): CCCCCC(O)c1cccc(OCc2ccc3ccccc3n2)c1 (stereo not drawn) [Rev-5901]
- culture calcium deposition (total calcium content) [2]: lack ability to induce; also recorded: lack of a response
- alkaline phosphatase activity [3]: lack ability to induce; also recorded: lack of a response

Structure (SMILES): c1ccc2c(c1)SCc1c-2[nH]c2ccccc12 [Compound 2, 6,11-dihydro-5-thia-11-aza-benzo[a]fluorene]
- Femoral Marrow area (Lck-IL4 transgenic mice): −7%
- Femoral Total area (Lck-IL4 transgenic mice): −4%
- calcium content [2]: most effective when added on Day 1
- normalized activity of alkaline phosphatase [3]: most effective when added on Day 1

Structure (SMILES): COc1ccc(C(=O)Nc2ccc(Cl)c(Cl)c2)cc1N [Compound 3, 3-amino-N-(3,4-dichlorophenyl)-4-methoxybenzamide]
- calcium content [2]: most effective when added on Day 11
- IC50 (15-LO): ~0.01 µM
- normalized activity of alkaline phosphatase [3]: most effective when added on Day 11

Structure (SMILES): CCCCCCC#Cc1ccccc1/C=C/C(=O)O [Compound 4, trans-3-(2-oct-1-ynyl-phenyl)-acrylic acid]
- IC50 (15-LO): 1 to 3 µM

Structure (SMILES): C=C1/C(=C\C=C2/CCC[C@]3(C)[C@@H]([C@H](C)CCCC(C)(C)O)CC[C@@H]23)C[C@@H](O)C[C@@H]1O [Vit D, 1,25-dihydroxy vitamin D3, reference compound]
- BMD Lumbar Spine L2-L4 [1, 7]: 0.2628 (0.023) gm mineral/cm^2
- BMD Lumbar Spine L5 [1, 7]: 0.2742 gm mineral/cm^2
